Values quoted from earlier work as cited in patent US20230111210A1, “COCRYSTAL ANTIOXIDANTS OF PROTOCATECHUIC ACID WITH L-THEANINE FOR THE TREATMENT OF OXIDATIVE STRESS AND INFLAMMATORY CONDITIONS” (priority 2020, published 2023).
≈ marks a conversion by molar mass, not a printed value.

Key:
rats = details: rat, in vivo
[1] = not given; remark: listed apart in the source
[2] = tested on: AMPA (α-amino-3-hydroxy-5-methyl-4-isoxazolepropionic acid) receptors
[3] = tested on: NMDA (N-methyl-D-Aspartate) receptors
rabbits = details: rabbit, in vivo

CCNC(=O)CC[C@H](N)C(=O)O [L-theanine, N-ethyl-L-glutamine]
pKa: 2.35 | LD50 (rats): greater than 5000 mg/kg | solubility in water (in words) [1]: soluble in water | affinity for AMPA receptors [2]: micromolar affinities | affinity for Kainate receptors (Kainate receptors): micromolar affinities | affinity for NMDA receptors [3]: micromolar affinities

O=C(O)c1ccc(O)c(O)c1 [Protocatechuic acid, 3,4-dihydroxybenzoic acid]
pKa: 4.26 | solubility in water [1]: 18.2 mg/mL (≈ 118 mM) | oral LD50 (rabbits): greater than 3000 mg/kg
